The record followed here is patent publication US8524659B2, “RNA virus-derived peptides with modified side chains” (National Taiwan University, priority 2011, dated 2013).

In one data set the test system is Jurkat cells. In words: MTT assay for determining cell survival. The following applies: 7 μM and 30 μM peptide, 4 hours, 37° C., FIG. 4. The class given is cell-based. The procedure:
The cells were grown to appropriate cell density (roughly 2×10^6 cells/mL) and transferred into new media one day before performing the experiment. For each assay, 8×10^5 cells as determined by a hemocytometer were added into an eppendorf. The cells were centrifuged at 2200 rpm for 5 minutes. The supernatant was removed by suction. Then 200 μL of 7 μM or 30 μM XaaTat peptide was added. The cells were incubated for 4 hours at 37° C. and then centrifuged at 2200 rpm for 5 minutes. The cells were washed with RPMI medium twice, and then 200 μL of 0.5 mg/mL MTT in serum free RPMI buffer was added and incubated at 37° C. for 3.5 hours. The cells were then centrifuged at 4000 rpm for 5 minutes. The supernatant was then transferred to two wells (100 μL each) of a 96-well plate. Then 400 μL DMSO was added to the cells in the assaying eppendorf. The eppendorf was then vortexed for 5 minutes to solubilize the MTT purple crystals, and centrifuged at 2200 rpm for 5 minutes. Then the supernatant was transferred to 4 wells (100 μL each) of the 96-well plate for analysis. The absorbance at 570 was determined for each well using a microplate reader with the absorbance at 655 nm used for background correction. A standard curve was generated using different number of cells (8×10^5, 4×10^5 and 2×10^5). The absorbance for each sample for each peptide at each concentration was then correlated to the number of live cells based on the standard curve.

The target of data set [1] is HIV TAR RNA. In words: Gel shift assay (EMSA) with fluorescein-labeled TAR RNA in the presence of poly(dI-dC). The format is binding. The procedure:
The fluorescein-labeled TAR RNA (F-TAR-RNA) was purchased from Sigma. F-TAR-RNA was dissolved in diethyl pyrocarbonate treated H2O to give a 50 μM solution. Binding assays were performed at room temperature. Peptide and RNA were incubated in pH 7.4 buffer (10 μL) containing Tris-HCl (50 mM), KCl (50 mM), poly-dIdC (10 μg/mL), 2% glycerol, and Triton X-100 (0.05%). The F-TAR-RNA concentration was 100 nM. The samples were analyzed by loading into 12% native polyacrylamide gels in […] and electrophoresis was performed with 140 V at room temperature. Dried gels were scanned by the Typhoon TRIO+ Variable Mode Imager. Bands corresponding to the free and bound RNA were quantified using ImageQuant software. The apparent dissociation constants were globally derived from the quantified data assuming a 1:1 binding stoichiometry.

Data set [2] addresses HIV TAR RNA. Kind of data set: Fluorescence anisotropy binding of Tat peptides to fluorescein-labeled TAR RNA. As for the experimental part:
The binding affinity of XaaTat peptides (Xaa=Agh, Arg and Agb) for TAR RNA was measured by fluorescence anisotropy using a Varian Cary Eclipse fluorescence spectrophotometer. The anisotropy (r) was calculated using the following equation: […]
where Ivv, Ivh, Ihh, Ihv are the fluorescence intensities with the excitation polarizer and emission polarizer is oriented perpendicular (Ivh and Ihv) and parallel (Ivv and Ihh) to the direction of the polarized excitation. The fluorescein-labeled TAR RNA (F-TAR-RNA) was excited at 490 nm and the polarized emissions were monitored at 512 nm. The slits were set at 10 nm for both excitation and emission. The integration time was 20 seconds. All data were measured in a Sub-Micro (Starna Cell, Inc.) with a starting volume of 160 μL. Each addition (1 μL) of XaaTat was equilibrated for two minutes before the fluorescence signal was recorded. All experiments were performed at room temperature in TKT buffer (TKT: 50 mM Tris-HCl, pH 7.4, 20 mM KCl and 0.02% Tween20). The initial concentration of F-TAR-RNA was 25 nM. The TKT solution and peptide stock solution were both equilibrated at room temperature more than 20 minutes before the experiment. The experiment was repeated three times independently. For every single point, three measurements were performed and the average value was used for deriving the apparent (apparent KD). The apparent for the peptide-RNA complex was derived by fitting the data assuming a 1:1 peptide-RNA stoichiometry. The fitting was performed using Kaleidagraph 3.52. (Synergy Software, CA).

The mark [3] stands for this setting: in the presence of poly(dI-dC) at 25° C., Table 3, read-out: KD, dissociation constant of Tat-peptide and TAR RNA by gel shift assay.
[4] abbreviates: Table 2, read-out: KD, binding affinity of Tat-peptide and TAR RNA by fluorescence anisotropy assay.

For the molecule `CC(=O)N[C@@H](Cc1ccc(O)cc1)C(=O)NCC(=O)N[C@@H](CCNC(=N)N)C(=O)N[C@@H](CCCCN)C(=O)N[C@@H](CCCCN)C(=O)N[C@@H](CCNC(=N)N)C(=O)N[C@@H](CCNC(=N)N)C(=O)N[C@@H](CCC(N)=O)C(=O)N[C@@H](CCNC(=N)N)C(=O)N[C@@H](CCNC(=N)N)C(=O)N[C@@H](CCNC(=N)N)C(N)=O` [AgbTat, Ac-Tyr-Gly-Agb-Lys-Lys-Agb-Agb-Gln-Agb-Agb-Agb-NH2], in the data set with Jurkat cells, the “Cytotoxicity (cell survival)” value is “minimal cytotoxicity”.
As to `CC(=O)N[C@@H](Cc1ccc(O)cc1)C(=O)NCC(=O)N[C@@H](CCCCNC(=N)N)C(=O)N[C@@H](CCCCN)C(=O)N[C@@H](CCCCN)C(=O)N[C@@H](CCCCNC(=N)N)C(=O)N[C@@H](CCCCNC(=N)N)C(=O)N[C@@H](CCC(N)=O)C(=O)N[C@@H](CCCCNC(=N)N)C(=O)N[C@@H](CCCCNC(=N)N)C(=O)N[C@@H](CCCCNC(=N)N)C(N)=O` [AghTat, Ac-Tyr-Gly-Agh-Lys-Lys-Agh-Agh-Gln-Agh-Agh-Agh-NH2], the “Cytotoxicity (cell survival)” value in the data set on Jurkat cells is listed as “minimal cytotoxicity”.
In the case of `CC(=O)N[C@@H](Cc1ccc(O)cc1)C(=O)NCC(=O)N[C@@H](CCCNC(=N)N)C(=O)N[C@@H](CCCCN)C(=O)N[C@@H](CCCCN)C(=O)N[C@@H](CCCNC(=N)N)C(=O)N[C@@H](CCCNC(=N)N)C(=O)N[C@@H](CCC(N)=O)C(=O)N[C@@H](CCCNC(=N)N)C(=O)N[C@@H](CCCNC(=N)N)C(=O)N[C@@H](CCCNC(=N)N)C(N)=O` [ArgTat, Ac-Tyr-Gly-Arg-Lys-Lys-Arg-Arg-Gln-Arg-Arg-Arg-NH2, reference compound], the “Cytotoxicity (cell survival)” value with Jurkat cells is reported as “minimal cytotoxicity”. Moreover, the Kd was determined as 0.067 ± 0.019 µM at HIV TAR RNA [1] (EMSA, 100 nM fluorescein-labeled HIV TAR RNA, 10 μg/mL poly(dI-dC), 1:1 stoichiometry, read-out: Apparent KD HIV TAR RNA with poly(dI-dC)); 0.067 ± 0.019 µM on HIV TAR RNA [1] (in the presence of 10 μg/mL poly(dI-dC), FIG. 9, read-out: KD of peptide and TAR-RNA by gel shift assay); 0.067 ± 0.019 µM at HIV TAR RNA [1] (setting [3]); 0.025 ± 0.003 µM on HIV TAR RNA [2] (setting [4]); 0.025 ± 0.003 µM at HIV TAR RNA [2] (fluorescence anisotropy, 25 nM fluorescein-labeled HIV TAR RNA, absence of poly(dI-dC), 1:1 stoichiometry, read-out: Apparent KD HIV TAR RNA). In addition, the “Effect of poly(dI-dC) on binding affinity for TAR RNA (specificity)” value in the data set with HIV TAR RNA [1] (comparison of absence and presence of poly(dI-dC), Table 1) is “somewhat affected”.
On to “Ac-Tyr-Gly-Arg-Lys-Lys-Arg-Arg-Gln-Arg-Arg-Cit-NH2 [Tat-Cit57]”, for which the Kd on HIV TAR RNA [1] (setting [3]) amounted to 0.146 ± 0.03 µM; on HIV TAR RNA [2] (setting [4]), 0.049 ± 0.006 µM.
On to “Ac-Tyr-Gly-Arg-Lys-Lys-Arg-Arg-Gln-Arg-Cit-Arg-NH2 [Tat-Cit56]”, for which the Kd was 0.164 ± 0.04 µM at HIV TAR RNA [1] (setting [3]) and 0.055 ± 0.009 µM on HIV TAR RNA [2] (setting [4]).
Regarding “Ac-Tyr-Gly-Arg-Lys-Lys-Arg-Arg-Gln-Cit-Arg-Arg-NH2 [Tat-Cit55]”, the Kd at HIV TAR RNA [1] (setting [3]) was 0.279 ± 0.074 µM; on HIV TAR RNA [2] (setting [4]), 0.099 ± 0.014 µM.
“Ac-Tyr-Gly-Arg-Lys-Lys-Arg-Cit-Gln-Arg-Arg-Arg-NH2 [Tat-Cit53]”: the figures for the Kd on HIV TAR RNA [1] (setting [3]) and at HIV TAR RNA [2] (setting [4]) were 0.344 ± 0.073 µM and 0.102 ± 0.011 µM, respectively.
Take “Ac-Tyr-Gly-Arg-Lys-Lys-Cit-Arg-Gln-Arg-Arg-Arg-NH2 [Tat-Cit52]”: the Kd came out at 0.235 ± 0.045 µM at HIV TAR RNA [1] (setting [3]) and 0.116 ± 0.017 µM at HIV TAR RNA [2] (setting [4]).
Take “Ac-Tyr-Gly-Cit-Lys-Lys-Arg-Arg-Gln-Arg-Arg-Arg-NH2 [Tat-Cit49]”: the values for the Kd on HIV TAR RNA [1] (setting [3]) and at HIV TAR RNA [2] (setting [4]) were 0.138 ± 0.021 µM and 0.094 ± 0.013 µM, respectively.
